Here are results for six molecules from ChEMBL document CHEMBL5120818, “Discovery and Biosynthesis of Antimicrobial Phenethylamine Alkaloids from the Marine Flavobacterium Tenacibaculum discolor sv11” (2022).

Common to all, as to assay type: functional
The test system of one test is Listeria monocytogenes. Description: Antibacterial activity against Listeria monocytogenes DSM20600 measured after 48 hrs by BacTiter-glo assay.
For test [1], the system named is Escherichia coli. Put plainly: Antibacterial activity against Escherichia coli ATCC25922 measured after 18 hrs by micro broth dilution assay.
The subject of a further test is Caenorhabditis elegans. Description: Antihelminthic activity against Caenorhabditis elegans N2 assessed as reduction in worm motility measured after 2 days by binocular dissecting microscopy. The settings on record: N2, 48 h, time 2 day.
In test [2] the test system is Escherichia coli. Put plainly: Antibacterial activity against delta tolC deficient Escherichia coli ATCC25922 measured after 18 hrs by micro broth dilution assay. A general note: Dilution methods test growth across graded concentrations, often in twofold steps.
Another test concerns Bacillus subtilis. Put plainly: Antibacterial activity against Bacillus subtilis DSM10 measured after 18 hrs by micro broth dilution assay.
For a further test, the system named is Candida albicans. Description: Antifungal activity against Candida albicans FH2173 measured after 48 hrs by BacTiter-glo assay.
For another test, the system named is Staphylococcus aureus. Description: Antibacterial activity against Staphylococcus aureus ATCC25923 measured after 18 hrs by micro broth dilution assay.
Test [3] concerns Mycolicibacterium smegmatis. Description: Antibacterial activity against Mycobacterium smegmatis ATCC607 measured after 48 hrs by BacTiter-glo assay.
The test system of the next test is Aspergillus flavus. Description: Antifungal activity against Aspergillus flavus ATCC9170 measured after 24 hrs by BacTiter-glo assay.

Regarding `CCCc1cc2n(CCc3ccccc3)cc(-c3ccccc3)cc-2[n+]1CCc1ccccc1`, the MIC was 0.5 µg/mL with Listeria monocytogenes; 64 µg/mL in the test on Escherichia coli [1]; 32 µg/mL in the test with Caenorhabditis elegans; 8 µg/mL in the test on Escherichia coli [2]; 1 µg/mL with Bacillus subtilis; 4 µg/mL with Candida albicans. The MIC is 0.5 µg/mL in the test with Staphylococcus aureus, 0.5 µg/mL in [3] and 1 µg/mL against Aspergillus flavus.
In the case of `CCCc1n(CCc2ccccc2)c(C)c(CC)[n+]1CCc1ccccc1`, the MIC against Listeria monocytogenes is more than 64 µg/mL; in the test with Escherichia coli [1] it was more than 64 µg/mL; with Caenorhabditis elegans, more than 64 µg/mL; in the test on Escherichia coli [2] it was more than 64 µg/mL; against Bacillus subtilis it was 32 µg/mL; with Candida albicans, more than 64 µg/mL. In addition, the MIC with Staphylococcus aureus is 64 µg/mL; in test [3], 8 µg/mL; against Aspergillus flavus, more than 64 µg/mL.
As to `CCCC1=[N+](CCc2ccccc2)C(C)(CCC(=O)c2ccccc2N)C(NCCc2ccccc2)=C1` (centres undefined), the MIC against Listeria monocytogenes is 4 µg/mL; in the test with Escherichia coli [1], more than 64 µg/mL; in the test on Caenorhabditis elegans it was 64 µg/mL; against Escherichia coli [2] it was more than 64 µg/mL; with Bacillus subtilis, 4 µg/mL; with Candida albicans, 16 µg/mL. In addition, the MIC in the test with Staphylococcus aureus came out at 8 µg/mL; in test [3] it was 8 µg/mL; in the test with Aspergillus flavus it was 16 µg/mL.
Regarding `CCCc1n(CCc2ccccc2)c(C)c(C)[n+]1CCc1ccccc1`, the MIC was more than 64 µg/mL with Listeria monocytogenes; more than 64 µg/mL against Escherichia coli [1]; more than 64 µg/mL with Caenorhabditis elegans; more than 64 µg/mL against Escherichia coli [2]; 16 µg/mL against Bacillus subtilis; more than 64 µg/mL in the test on Candida albicans. Besides, the MIC was 64 µg/mL in the test on Staphylococcus aureus, 8 µg/mL in test [3] and more than 64 µg/mL with Aspergillus flavus.
For the molecule `CCCc1c(CC)cc(CC)c[n+]1CCc1ccccc1`, the MIC in the test on Listeria monocytogenes, in the test on Escherichia coli [1], in the test on Caenorhabditis elegans, with Escherichia coli [2], with Bacillus subtilis and in the test with Candida albicans was more than 64 µg/mL each time. For the same molecule, the MIC (against Staphylococcus aureus; in [3]; in the test with Aspergillus flavus) was more than 64 µg/mL each time.
As for `CCCc1c(C)cn(CCc2ccccc2)c2cc(CCC)[n+](CCc3ccccc3)c1-2`, the MIC was 2 µg/mL against Listeria monocytogenes; more than 64 µg/mL against Escherichia coli [1]; more than 64 µg/mL with Caenorhabditis elegans; 64 µg/mL against Escherichia coli [2]; 4 µg/mL in the test on Bacillus subtilis; 8 µg/mL in the test with Candida albicans. Besides, the MIC against Staphylococcus aureus is 4 µg/mL; in test [3], 4 µg/mL; against Aspergillus flavus, 8 µg/mL.
